Biological target: T1, Axl (Homo sapiens, UniProt P30530)
T1 sequence (P30530 26-894): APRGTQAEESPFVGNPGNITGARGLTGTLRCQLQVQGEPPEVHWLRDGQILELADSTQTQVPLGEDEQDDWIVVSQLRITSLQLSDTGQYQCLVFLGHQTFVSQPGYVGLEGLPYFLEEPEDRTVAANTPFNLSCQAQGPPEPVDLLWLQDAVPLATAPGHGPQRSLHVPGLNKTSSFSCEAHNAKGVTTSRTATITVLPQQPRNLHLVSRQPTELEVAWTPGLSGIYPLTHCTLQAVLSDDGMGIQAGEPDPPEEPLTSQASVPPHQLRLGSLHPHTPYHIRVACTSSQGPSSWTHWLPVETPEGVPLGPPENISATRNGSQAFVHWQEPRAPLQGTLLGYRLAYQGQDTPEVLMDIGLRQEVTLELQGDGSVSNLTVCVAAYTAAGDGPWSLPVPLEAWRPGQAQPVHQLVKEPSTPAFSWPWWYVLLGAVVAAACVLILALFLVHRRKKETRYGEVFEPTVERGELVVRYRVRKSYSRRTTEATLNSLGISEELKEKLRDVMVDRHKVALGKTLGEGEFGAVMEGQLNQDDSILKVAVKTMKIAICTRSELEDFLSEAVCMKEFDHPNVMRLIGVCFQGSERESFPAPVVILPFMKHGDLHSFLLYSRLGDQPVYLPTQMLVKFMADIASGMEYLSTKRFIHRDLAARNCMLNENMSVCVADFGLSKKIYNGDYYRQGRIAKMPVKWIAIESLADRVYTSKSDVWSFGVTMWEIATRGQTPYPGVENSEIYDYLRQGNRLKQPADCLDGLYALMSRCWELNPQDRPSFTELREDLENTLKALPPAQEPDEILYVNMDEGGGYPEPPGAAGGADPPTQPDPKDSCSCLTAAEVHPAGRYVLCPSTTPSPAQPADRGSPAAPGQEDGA
Experiment: Axl NanoBRET intracellular kinase assay (Cell Binding)
Set-up: host or cells: HEK-293
Details: HEK-293 cells transfected with Axl-NanoLuc fusion vector; displacement of K-5 NanoBRET tracer
Procedure, shortened: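 In intact HEK-293 cells transiently expressing NanoLuc-tagged Axl, compounds compete with the K-5 tracer (0.35 μM, 2 h, 37 °C) after a 1 h preincubation. Readout is the 610/450 nm emission ratio.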

IC50 [nM] | SMILES
< 100 | C[C@@H]1CCCN1C1CCc2cc(-c3cnc4[nH]nc(-c5ccc6c(c5)OCCNC6=O)c4c3)cc(Cl)c2CC1 (stereo partly drawn) [Example 65, 8-(5-{4-Chloro-7-[(2R)-2-methylpyrrolidin-1-yl]-6,7,8,9-tetrahydro-5H-benzo[7]annulen-2-yl}-1H-pyrazolo[3,4-b]pyridin-3-yl)-2,3,4,5-tetrahydro-1,4-benzoxazepin-5-one]
< 100 | Cc1cc2c(cc1-c1cnc3[nH]nc(-c4ccc5c(c4)OCCNC5=O)c3c1)CCC(N1CCC[C@H]1C)CC2 (stereo partly drawn) [Example 64, 8-(5-{3-Methyl-7-[(2R)-2-methylpyrrolidin-1-yl]-6,7,8,9-tetrahydro-5H-benzo[7]annulen-2-yl}-1H-pyrazolo[3,4-b]pyridin-3-yl)-2,3,4,5-tetrahydro-1,4-benzoxazepin-5-one]
< 100 | C[C@H]1CCCN1C1CCc2ccc(-c3cnc4[nH]nc(-c5ccc6c(c5)OCCNC6=O)c4c3)cc2CC1 (stereo partly drawn) [Example 43, 8-(5-{7-[(2S)-2-Methylpyrrolidin-1-yl]-6,7,8,9-tetrahydro-5H-benzo[7]annulen-2-yl}-1H-pyrazolo[3,4-b]pyridin-3-yl)-2,3,4,5-tetrahydro-1,4-benzoxazepin-5-one]
< 100 | O=C1NCCOc2cc(-c3n[nH]c4ncc(-c5ccc6c(c5)CC[C@H](N5CCCC5)CC6)cc34)ccc21 (single isomer, unassigned) [Example 56]
< 100 | Cc1cc2c(cc1-c1n[nH]c3ncc(-c4ccc5c(c4)CCC(N4CCC[C@H]4C)CC5)cc13)OCCNC2=O (stereo partly drawn) [Example 40, 7-Methyl-8-(5-{7-[(2R)-2-methylpyrrolidin-1-yl]-6,7,8,9-tetrahydro-5H-benzo[7]annulen-2-yl}-1H-pyrazolo[3,4-b]pyridin-3-yl)-2,3,4,5-tetrahydro-1,4-benzoxazepin-5-one]

The next lines start with the compound.

SMILES | IC50 [nM]
O=C1NCCOc2cc(-c3n[nH]c4ncc(-c5ccc6c(c5)CCN(C5CC5)CC6)cc34)ccc21 [Example 20, 8-(5-(3-Cyclopropyl-2,3,4,5-tetrahydro-1H-benzo[d]azepin-7-yl)-1H-pyrazolo[3,4-b]pyridin-3-yl)-3,4-dihydrobenzo[f][1,4]oxazepin-5(2H)-one] | 100 to 1000
O=C1NCCOc2cc(-c3n[nH]c4ncc(-c5ccc6c(c5)CCC(N5CCCC5)CC6)cc34)ccc21 (racemic) [Example 1, 8-{5-[7-(Pyrrolidin-1-yl)-6,7,8,9-tetrahydro-5H-benzo[7]annulen-2-yl]-1H-pyrazolo[3,4-b]pyridin-3-yl}-2,3,4,5-tetrahydro-1,4-benzoxazepin-5-one] | < 100
O=C1NCCOc2cc(-c3n[nH]c4ncc(-c5ccc6c(c5)CCC(N[C@@H]5CCOC5)C6)cc34)ccc21 (stereo partly drawn) [Example 5, 8-[5-(6-{[(3R)—Oxolan-3-yl]amino}-5,6,7,8-tetrahydronaphthalen-2-yl)-1H-pyrazolo[3,4-b]pyridin-3-yl]-2,3,4,5-tetrahydro-1,4-benzoxazepin-5-one] | < 100
CC1(O)CCOc2cc(-c3n[nH]c4ncc(-c5ccc6c(c5)CCN(C5CCCC5)CC6)cc34)ccc21 (stereo not drawn) [Example 26, 7-[5-(3-Cyclopentyl-2,3,4,5-tetrahydro-1H-3-benzazepin-7-yl)-1H-pyrazolo[3,4-b]pyridin-3-yl]-4-methyl-3,4-dihydro-2H-1-benzopyran-4-ol] | 100 to 1000
O=C1NCCOc2cc(-c3n[nH]c4ncc(-c5ccc6c(c5)CCC(NC5CCCC5)CC6)cc34)ccc21 (stereo not drawn) [Example 42, 8-{5-[7-(Cyclopentylamino)-6,7,8,9-tetrahydro-5H-benzo[7]annulen-2-yl]-1H-pyrazolo[3,4-b]pyridin-3-yl}-2,3,4,5-tetrahydro-1,4-benzoxazepin-5-one] | < 100
O=C1NCCOc2cc(-c3n[nH]c4ncc(-c5ccc6c(c5)CCN(C5COC5)C6)cc34)ccc21 [Example 12, 8-(5-(2-(Oxetan-3-yl)-1,2,3,4-tetrahydroisoquinolin-6-yl)-1H-pyrazolo[3,4-b]pyridin-3-yl)-3,4-dihydrobenzo[f][1,4]oxazepin-5(2H)-one] | 100 to 1000
C[C@@H]1CCCN1C1CCc2ccc(-c3cnc4[nH]nc(-c5ccc6c(c5)S(=O)(=O)NC6(C)C)c4c3)cc2CC1 (stereo partly drawn) [Example 33, 3,3-Dimethyl-6-(5-{7-[(2R)-2-methylpyrrolidin-1-yl]-6,7,8,9-tetrahydro-5H-benzo[7]annulen-2-yl}-1H-pyrazolo[3,4-b]pyridin-3-yl)-2,3-dihydro-1λ^6,2-benzothiazole-1,1-dione] | < 100

Source: US20240226115A1, “AXL INHIBITOR COMPOUNDS” (ARCUS BIOSCIENCES, INC., priority 2021, published 2024)
